This passage reports IC50 results from patent publication US20240409585A1, “MACROCYCLIC IMMUNOMODULATORS” (priority 2021, published 2024).

The structures appear in SMILES notation. Numbered stars: 1 amine (or outer) side, 2 acyl side, 3 side chain; on linkers, the order of the positions; unused ones are H or OH. Bridge positions count the residues as written; N and C are the ends. Square brackets hold non-standard residues; d marks the D form. Peptide text beside a SMILES is read from it. * marks the point of attachment. Tyr(3-NO2) = N[C@@H](Cc1ccc(O)c([N+](=O)[O-])c1)C(=O)O; Phe(4-CONH2) = NC(=O)c1ccc(C[C@H](N)C(=O)O)cc1; Phe(4-COOH) = N[C@@H](Cc1ccc(C(=O)O)cc1)C(=O)O; Asp(3,3-Me2) = CC(C)(C(=O)O)[C@H](N)C(=O)O; Bip = N[C@@H](Cc1ccc(-c2ccccc2)cc1)C(=O)O; X50 = C[C@@H](C(=O)[*:2])N(CCCCCN)[*:1]; Phe(3-Me) = Cc1cccc(C[C@H](N)C(=O)O)c1; Val(3-OH) = CC(C)(O)[C@H](N)C(=O)O; 4Pal = N[C@@H](Cc1ccncc1)C(=O)O; Cha = N[C@@H](CC1CCCCC1)C(=O)O; Cit = NC(=O)NCCC[C@H](N)C(=O)O; Carboxymethyl = O=C(O)C*; NMeA = CN[C@@H](C)C(=O)O; Nle = CCCC[C@H](N)C(=O)O; Orn = NCCC[C@H](N)C(=O)O; Dab = NCC[C@H](N)C(=O)O; Dap = NC[C@H](N)C(=O)O

The term IC50 denotes the concentration that inhibits the measured activity by half.

This assay deals with T1, PE-labeled human PD-L1-Ig binding to Jurkat cell line over-expressing human PD-1 (Jurkat-PD-1) (Homo sapiens, UniProt Q15116).
T1 construct: expressed in transfected cells; host or cells: Jurkat
T1 sequence (Q15116 25-288): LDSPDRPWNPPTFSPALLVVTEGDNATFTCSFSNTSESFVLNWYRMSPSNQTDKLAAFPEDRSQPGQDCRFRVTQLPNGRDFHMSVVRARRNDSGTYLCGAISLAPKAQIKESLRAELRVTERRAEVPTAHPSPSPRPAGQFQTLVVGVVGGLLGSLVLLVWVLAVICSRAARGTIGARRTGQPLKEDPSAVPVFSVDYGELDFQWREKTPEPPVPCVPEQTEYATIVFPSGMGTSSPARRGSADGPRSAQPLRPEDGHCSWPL
The experiment in a line: Jurkat-PD-1 Cell Binding High-Content Screening Assay (CBA): Method 1. The conditions noted are these: Jurkat-hPD-1 cells, PE-labeled PD-L1-Ig 20 nM final; read-out: Jurkat HPDL1 PD1 IC50 (uM) (Method 1).
As for `CC(C)C[C@@H]1NC(=O)[C@H](Cc2c[nH]c3ccccc23)NC(=O)[C@H](CC(=O)O)NC(=O)[C@H](Cc2ccc(O)cc2)NC(=O)[C@H](Cc2ccccc2)NC(=O)CSC[C@@H](C(=O)N[C@@H](C)C(N)=O)NC(=O)[C@H]([C@@H](C)O)NC(=O)[C@H](C(C)C)NC(=O)[C@H](CC(C)C)NC(=O)[C@H](CC(N)=O)NC(=O)[C@@H](C)NC(=O)[C@H](C)N(C)C(=O)[C@H](C(C)C)NC(=O)[C@H](Cc2ccc(-c3ccccc3)cc2)NC1=O` [Compound 1744] ({CH2CO}-FYDWL[Bip]V[NMeA][dA]NLVTCA-NH2; thioether N-14), the IC50 came to 0.02 µM. The value for `CCNC(=O)[C@H](CCN)NC(=O)[C@@H]1CSCC(=O)N[C@@H](Cc2ccc(C(N)=O)cc2)C(=O)N[C@@H](Cc2ccc(OCC(=O)O)cc2)C(=O)N[C@@H](CC(=O)O)C(=O)N[C@@H](Cc2cccc(C)c2)C(=O)N[C@@H](Cc2ccc(OCC(=O)O)cc2)C(=O)N[C@@H](Cc2ccc(-c3ccccc3)cc2)C(=O)N[C@@H](Cc2ccc(OCC(=O)O)cc2)C(=O)N(C)[C@@H](C)C(=O)N[C@H](CC(C)C)C(=O)N[C@@H](CCN)C(=O)N[C@@H](CC2CCCCC2)C(=O)N[C@@H](C(C)C)C(=O)N[C@@H]([C@@H](C)O)C(=O)N1` [Compound 1857] ({CH2CO}-[Phe(4-CONH2)]Y(Carboxymethyl)D[Phe(3-Me)]Y(Carboxymethyl)[Bip]Y(Carboxymethyl)[NMeA][dL][Dab][Cha]VTC[Dab]-NHEt; thioether N-14) was 0.01 µM; that for `CCCC[C@@H]1NC(=O)[C@H](CCCNC(=N)N)NC(=O)[C@@H](CC(C)C)NC(=O)[C@H](C)N(C)C(=O)[C@H]([C@@H](C)CC)NC(=O)[C@H](Cc2ccc(-c3ccccc3)cc2)NC(=O)[C@H](C(C)C)NC(=O)[C@H](Cc2c[nH]c3ccccc23)NC(=O)[C@H](CC(=O)O)NC(=O)[C@H](Cc2ccc(O)cc2)NC(=O)[C@H](Cc2ccccc2)NC(=O)CSC[C@@H](C(=O)N[C@@H](C)C(N)=O)NC(=O)[C@H]([C@@H](C)O)NC(=O)[C@H](C(C)C)NC1=O` [Compound 1499] ({CH2CO}-FYDWV[Bip]I[NMeA][dL]R[Nle]VTCA-NH2; thioether N-14) was 0.14 µM; that for `Cc1cccc(C[C@@H]2NC(=O)[C@H](CC(=O)O)NC(=O)[C@H](Cc3ccc(C(=O)O)cc3)NC(=O)[C@H](Cc3ccc(OCC(=O)O)cc3)NC(=O)CSC[C@@H](C(N)=O)NC(=O)[C@H](CO)NC(=O)[C@H](C(C)C)NC(=O)[C@H](CC(C)C)NC(=O)[C@H](CC(N)=O)NC(=O)[C@@H](CC(C)C)NC(=O)[C@H](C)N(C)C(=O)[C@H](CCCNC(N)=O)NC(=O)[C@H](Cc3ccc(-c4ccccc4)cc3)NC(=O)[C@H](CC(C)C)NC2=O)c1` [Compound 1643] ({CH2CO}-Y(Carboxymethyl)[Phe(4-COOH)]D[Phe(3-Me)]L[Bip][Cit][NMeA][dL]NLVSC-NH2; thioether N-14) was 0.08 µM. Take `CC(C)C[C@@H]1NC(=O)[C@H](CCCNC(=N)N)NC(=O)[C@@H](CC(C)C)NC(=O)[C@H](C)N(C)C(=O)[C@H](CCCNC(=N)N)NC(=O)[C@H](Cc2ccc(-c3ccccc3)cc2)NC(=O)[C@H](C(C)C)NC(=O)[C@H](Cc2c[nH]c3ccccc23)NC(=O)[C@H](CC(=O)O)NC(=O)[C@H](Cc2ccc(O)cc2)NC(=O)[C@H](CC(N)=O)NC(=O)CSC[C@@H](C(=O)N[C@@H](C)C(N)=O)NC(=O)[C@H]([C@@H](C)O)NC(=O)[C@H](C(C)C)NC1=O` [Compound 1045] ({CH2CO}-NYDWV[Bip]R[NMeA][dL]RLVTCA-NH2; thioether N-14): the IC50 amounted to 0.2 µM.

With `CC(C)C[C@@H]1NC(=O)[C@H](CCN)NC(=O)[C@@H](CC(C)C)NC(=O)[C@H](C)N(C)C(=O)[C@H](CCCNC(N)=O)NC(=O)[C@H](Cc2ccc(-c3ccccc3)cc2)NC(=O)[C@H](C(C)C)NC(=O)[C@H](Cc2c[nH]c3ccccc23)NC(=O)[C@H](CC(=O)O)NC(=O)[C@H](Cc2ccc(O)c([N+](=O)[O-])c2)NC(=O)[C@H](CC(N)=O)NC(=O)CSC[C@@H](C(=O)N[C@@H](C)C(N)=O)NC(=O)[C@H]([C@@H](C)O)NC(=O)[C@H](C(C)C)NC1=O` [Compound 1319] ({CH2CO}-N[Tyr(3-NO2)]DWV[Bip][Cit][NMeA][dL][Dab]LVTCA-NH2; thioether N-14), the IC50 is 0.04 µM. The value for `Cc1cccc(C[C@@H]2NC(=O)[C@H](CC(=O)O)NC(=O)[C@H](Cc3ccc(OCC(=O)O)cc3)NC(=O)[C@H](CCN)NC(=O)CSC[C@@H](C(=O)N[C@H](C(N)=O)C(C)(C)C(=O)O)NC(=O)[C@H](CO)NC(=O)[C@H](C(C)(C)O)NC(=O)[C@H](CC3CCCCC3)NC(=O)[C@H](CCN)NC(=O)[C@@H](CC(C)C)NC(=O)[C@H](C)N(C)C(=O)[C@H](Cc3ccc(OCC(=O)O)cc3)NC(=O)[C@H](Cc3ccc(-c4ccccc4)cc3)NC(=O)[C@H](Cc3ccc(OCC(=O)O)cc3)NC2=O)c1` [Compound 1847] ({CH2CO}-[Dab]Y(Carboxymethyl)D[Phe(3-Me)]Y(Carboxymethyl)[Bip]Y(Carboxymethyl)[NMeA][dL][Dab][Cha][Val(3-OH)]SC[Asp(3,3-Me2)]-NH2; thioether N-14) was 0.7 µM; that for `CC[C@H](C)[C@@H]1NC(=O)[C@H](CC(C)C)NC(=O)[C@H](CCCNC(=N)N)NC(=O)[C@@H](CC(C)C)NC(=O)[C@H](C)N(C)C(=O)[C@H](CCCNC(=N)N)NC(=O)[C@H](Cc2ccc(-c3ccccc3)cc2)NC(=O)[C@H](C(C)C)NC(=O)[C@H](Cc2c[nH]c3ccccc23)NC(=O)[C@H](CC(=O)O)NC(=O)[C@H](Cc2ccc(O)cc2)NC(=O)[C@H](Cc2ccccc2)NC(=O)CSC[C@@H](C(=O)N[C@@H](C)C(N)=O)NC(=O)[C@H]([C@@H](C)O)NC1=O` [Compound 1118] ({CH2CO}-FYDWV[Bip]R[NMeA][dL]RLITCA-NH2; thioether N-14) was 0.16 µM; that for `CC(C)C[C@@H]1NC(=O)[C@H](Cc2c[nH]c3ccccc23)NC(=O)[C@H](CC(=O)O)NC(=O)[C@H](Cc2ccncc2)NC(=O)[C@H](Cc2ccc(OCC(=O)O)cc2)NC(=O)CSC[C@@H](C(=O)N[C@@H](CC(N)=O)C(N)=O)NC(=O)[C@H](CO)NC(=O)[C@H](C(C)C)NC(=O)[C@H](CC2CCCCC2)NC(=O)[C@H](CCN)NC(=O)[C@@H](CC(C)C)NC(=O)[C@H](C)N(C)C(=O)[C@H](C(C)C)NC(=O)[C@H](Cc2ccc(-c3ccccc3)cc2)NC1=O` [Compound 1901] ({CH2CO}-Y(Carboxymethyl)[4Pal]DWL[Bip]V[NMeA][dL][Dab][Cha]VSCN-NH2; thioether N-14) was 0.01 µM. The value for `CC(C)C[C@@H]1NC(=O)[C@H](CCN)NC(=O)[C@@H](CC(C)C)NC(=O)[C@H](C)N(CCCCCN)C(=O)[C@H](CCCNC(=N)N)NC(=O)[C@H](Cc2ccc(-c3ccccc3)cc2)NC(=O)[C@H](C(C)C)NC(=O)[C@H](Cc2c[nH]c3ccccc23)NC(=O)[C@H](CC(=O)O)NC(=O)[C@H](Cc2ccc(O)cc2)NC(=O)[C@H](CC(N)=O)NC(=O)CSC[C@@H](C(=O)N[C@@H](C)C(N)=O)NC(=O)[C@H]([C@@H](C)O)NC(=O)[C@H](C(C)C)NC1=O` [Compound 1257] ({CH2CO}-NYDWV[Bip]R[X50][dL][Dab]LVTCA-NH2; thioether N-14) was 0.13 µM; that for `CC(C)C[C@@H]1NC(=O)[C@H](CCCN)NC(=O)[C@@H](CC(C)C)NC(=O)[C@H](C)N(C)C(=O)[C@H](CCCNC(=N)N)NC(=O)[C@H](Cc2ccc(-c3ccccc3)cc2)NC(=O)[C@H](C(C)C)NC(=O)[C@H](Cc2c[nH]c3ccccc23)NC(=O)[C@H](CC(=O)O)NC(=O)[C@H](Cc2ccc(O)cc2)NC(=O)[C@H](CC(N)=O)NC(=O)CSC[C@@H](C(=O)N[C@@H](CO)C(N)=O)NC(=O)[C@H]([C@@H](C)O)NC(=O)[C@H](C(C)C)NC1=O` [Compound 1177] ({CH2CO}-NYDWV[Bip]R[NMeA][dL][Orn]LVTCS-NH2; thioether N-14) was 0.12 µM; that for `CC[C@H](C)[C@@H]1NC(=O)[C@H](Cc2ccc(-c3ccccc3)cc2)NC(=O)[C@H](C(C)C)NC(=O)[C@H](Cc2c[nH]c3ccccc23)NC(=O)[C@H](CC(=O)O)NC(=O)[C@H](Cc2ccc(O)cc2)NC(=O)[C@H](CN)NC(=O)CSC[C@@H](C(=O)N[C@@H](C)C(N)=O)NC(=O)[C@H]([C@@H](C)O)NC(=O)[C@H](C(C)C)NC(=O)[C@H](CC(C)C)NC(=O)[C@H](CCN)NC(=O)[C@@H](CC(C)C)NC(=O)[C@H](C)N(C)C1=O` [Compound 1414] ({CH2CO}-[Dap]YDWV[Bip]I[NMeA][dL][Dab]LVTCA-NH2; thioether N-14) was 0.1 µM. As to `Cc1cccc(C[C@@H]2NC(=O)[C@H](CC(=O)O)NC(=O)[C@H](Cc3ccc(C(=O)O)cc3)NC(=O)[C@H](Cc3ccc(OCC(=O)O)cc3)NC(=O)CSC[C@@H](C(=O)N[C@@H](CC(=O)O)C(N)=O)NC(=O)[C@H](CO)NC(=O)[C@H](C(C)C)NC(=O)[C@H](CC(C)C)NC(=O)[C@H](CC(N)=O)NC(=O)[C@@H](CC(C)C)NC(=O)[C@H](C)N(C)C(=O)[C@H](C(C)C)NC(=O)[C@H](Cc3ccc(-c4ccccc4)cc3)NC(=O)[C@H](CC(C)C)NC2=O)c1` [Compound 1602] ({CH2CO}-Y(Carboxymethyl)[Phe(4-COOH)]D[Phe(3-Me)]L[Bip]V[NMeA][dL]NLVSCD-NH2; thioether N-14), the IC50 stood at 0.01 µM.
